Among the test systems are SN12C renal; HL-60(TB) leukemia; HCT-15 colon; HOP-62 NSCLC; SW-620 colon; SR leukemia; TK-10 renal; ACHN renal; NCI-H226 lung; CAKI-1 renal.
Holding throughout (assay): NCI anticancer screen, dose series, 48 h

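Grown in 96-well plates, cells were treated for 48 hours with each compound at five concentrations. Insufficient inhibition: endpoint recorded as highest concentration tested. GI50 marks 50% less growth. TGI marks complete inhibition of growth.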

Consider `COc1ccc(NC(=O)COCCOCCNC[C@@H]2C(=O)O[C@H]3[C@H]2CC/C(COC(=O)OC/C2=C/CC[C@@]4(C)O[C@H]4[C@H]4OC(=O)[C@@H](CN(C)C)[C@@H]4CC2)=C\CC[C@@]2(C)O[C@@H]32)c(O)c1C(N)=O`, for which the GI50 in the test on SN12C renal is 7.74 µM; in the test on HL-60(TB) leukemia, 0.77 µM; in the test with HCT-15 colon, 1.44 µM; with HOP-62 NSCLC, 39.9 µM; in the test on SW-620 colon, 1.14 µM; in the test with SR leukemia, 1.99 µM. Further, the values for the GI50 in the test on TK-10 renal, in the test with ACHN renal and with NCI-H226 lung were 2.72 µM, 0.987 µM and 8.33 µM, respectively. Also, the TGI in the test on SN12C renal was 17.5 µM; with HL-60(TB) leukemia, 1.91 µM; with HCT-15 colon, 6.14 µM; in the test on HOP-62 NSCLC, above 50 µM; with SW-620 colon it was 2.87 µM; in the test with SR leukemia, 9.28 µM. Further, the results for the TGI with TK-10 renal, with ACHN renal and in the test with NCI-H226 lung were 9.12 µM, 2.21 µM and 16.2 µM, respectively.

Take `COc1ccc(/C(=N\O)c2cc(C)c(OC)c(C)c2)cc1O`: the GI50 in the test with SN12C renal is 0.0484 µM; in the test on HL-60(TB) leukemia, 0.011 µM; in the test on HCT-15 colon, below 0.01 µM; in the test on HOP-62 NSCLC, 0.0215 µM; with SW-620 colon, below 0.01 µM; in the test on SR leukemia, below 0.01 µM. Also, the GI50 in the test on TK-10 renal was 0.078 µM; in the test on ACHN renal, below 0.01 µM; in the test on NCI-H226 lung, 11.2 µM. In addition, the TGI in the test on SN12C renal is above 100 µM; with HL-60(TB) leukemia, 0.0607 µM; in the test on HCT-15 colon it was above 100 µM; in the test on HOP-62 NSCLC it was above 100 µM; in the test on SW-620 colon, above 100 µM; with SR leukemia, above 100 µM. For the same molecule, the TGI in the test on TK-10 renal, in the test on ACHN renal and in the test on NCI-H226 lung was above 100 µM each time.

Regarding `Cc1ccc(NC(=O)C(=O)CC(=O)c2c(C)n([O-])c3ccccc3[n+]2=O)cc1`, the TGI with SN12C renal is above 100 µM; in the test on HL-60(TB) leukemia, 48.6 µM; in the test with CAKI-1 renal, above 100 µM; in the test on HCT-15 colon, 89.4 µM; with HOP-62 NSCLC, above 100 µM; in the test on SW-620 colon, above 100 µM. The TGI was 49.8 µM in the test on SR leukemia, above 100 µM with TK-10 renal, above 100 µM in the test on ACHN renal and above 100 µM in the test on NCI-H226 lung.

With `COc1cc(-n2cc(-c3ccc(Cl)cc3)nc2SCc2cccc(C#N)c2)cc(OC)c1OC`, the GI50 with SN12C renal is 46 µM; in the test with HL-60(TB) leukemia, above 100 µM; with CAKI-1 renal, 38.5 µM; in the test on HCT-15 colon, above 100 µM; in the test with HOP-62 NSCLC it was 39.2 µM; with SW-620 colon, 91.5 µM. Moreover, the GI50 with SR leukemia is above 100 µM; in the test with TK-10 renal, 30.5 µM; in the test on ACHN renal, 37.6 µM; with NCI-H226 lung, 41.3 µM. Moreover, the TGI with SN12C renal, in the test on HL-60(TB) leukemia, with CAKI-1 renal, in the test with HCT-15 colon, with HOP-62 NSCLC and in the test on SW-620 colon was above 100 µM throughout. For the same molecule, the TGI with SR leukemia, in the test with TK-10 renal, in the test with ACHN renal and in the test on NCI-H226 lung was above 100 µM each time.

As to `COc1ccccc1C1c2cc3c(cc2OC(O)(CO)C1C(=O)O)OCO3` (configuration not stated) (tested in a mixture with another compound), the TGI in the test with SN12C renal, in the test on HL-60(TB) leukemia, in the test on HCT-15 colon, in the test on HOP-62 NSCLC, in the test with SW-620 colon and with SR leukemia was above 100 µM each time. The TGI in the test with TK-10 renal, in the test on ACHN renal and with NCI-H226 lung was above 100 µM each time.

`COc1ccc(CC(=O)NCCc2ccc(OC)c(OC)c2)cc1Br`: the TGI with SN12C renal, with HL-60(TB) leukemia, in the test on CAKI-1 renal, with HOP-62 NSCLC, in the test on SW-620 colon and in the test with SR leukemia was above 100 µM in each case. The TGI in the test on TK-10 renal, with ACHN renal and in the test on NCI-H226 lung was above 100 µM in each case.

On to `C=C1C(=O)O[C@H]2[C@H]1CCC(/C=N/c1ncc(Br)cc1N)=C\CC[C@@]1(C)O[C@@H]21`, for which the GI50 with SN12C renal is 1.78 µM; in the test on HL-60(TB) leukemia, 0.494 µM; in the test on HCT-15 colon it was 1.49 µM; in the test on HOP-62 NSCLC, 10.8 µM; in the test on SW-620 colon it was 1.33 µM; with SR leukemia, 1.32 µM. In addition, the GI50 was 1.6 µM with TK-10 renal, 1.41 µM in the test on ACHN renal and 2.88 µM with NCI-H226 lung. Besides, the TGI in the test on SN12C renal was 5.41 µM; in the test with HL-60(TB) leukemia, 3.29 µM; in the test on HCT-15 colon, 4.01 µM; in the test with HOP-62 NSCLC it was 24 µM; with SW-620 colon, 3.3 µM; with SR leukemia it was 7.68 µM. In addition, the TGI in the test on TK-10 renal came out at 3.19 µM; in the test on ACHN renal it was 4.9 µM; with NCI-H226 lung, 11.7 µM.

`C=C1C(=O)OC2C=C(CCC(C)=O)C(C)C(OC(C)=O)CC12` (configuration not stated): the TGI with SN12C renal amounted to 32.1 µM; in the test on HL-60(TB) leukemia, 8.89 µM; with CAKI-1 renal, 23.6 µM; in the test with HCT-15 colon, 20.1 µM; in the test with SW-620 colon, 1.22 µM; with SR leukemia it was 52.9 µM. The TGI in the test with TK-10 renal came out at 24.4 µM; in the test on ACHN renal, 19.7 µM; in the test with NCI-H226 lung, 32.8 µM.

As to `O=[N+]([O-])c1cc(C2SCc3nc4ccccc4n32)ccc1Cl` (configuration not stated), the TGI in the test on SN12C renal was 33.8 µM; in the test on HL-60(TB) leukemia, 42.4 µM; in the test on CAKI-1 renal it was above 100 µM; in the test on SW-620 colon, above 100 µM; with SR leukemia it was above 100 µM; with TK-10 renal it was above 100 µM. Moreover, the results for the TGI in the test with ACHN renal and in the test with NCI-H226 lung were above 100 µM and 61.8 µM, respectively.

Turning to `C[N+]1(C)C/C(=C\c2ccccc2)C(=O)/C(=C/c2ccccc2)C1`, the TGI was 73.2 µM in the test on SN12C renal; above 100 µM in the test with HL-60(TB) leukemia; above 100 µM with HCT-15 colon; above 100 µM in the test on HOP-62 NSCLC; above 100 µM in the test on SR leukemia; above 100 µM with TK-10 renal. Moreover, the TGI in the test on ACHN renal and with NCI-H226 lung was above 100 µM throughout.

Values taken from PubChem BioAssay (NCI).
